Earlier results in patent publication US20120252695A1 (Janssen R&D Ireland, priority 2009, published 2012).

Test system: HCV
Conditions: carriers of two copies of the advantageous IL28B variant; multi-ethnic population

IFN-α
patients who cleared the virus and remained virus-free 24 weeks post-treatment: approximately 80%
